Active and inactive are the calls of the source. No cut-off for these calls is given here.
Key:
[1] = biological target: T1, Mas-related G-protein coupled receptor member X2 (Homo sapiens) (UniProt Q96LB1); assay: Competitive binding affinity to MrgX2 (unknown origin) assessed as retention time of compound at 1 x 10^-7mol/L by zonal elution method (reference value: 58.73 min); conditions: dose 1.0 10^-7mol/L
T1 sequence (whole entry): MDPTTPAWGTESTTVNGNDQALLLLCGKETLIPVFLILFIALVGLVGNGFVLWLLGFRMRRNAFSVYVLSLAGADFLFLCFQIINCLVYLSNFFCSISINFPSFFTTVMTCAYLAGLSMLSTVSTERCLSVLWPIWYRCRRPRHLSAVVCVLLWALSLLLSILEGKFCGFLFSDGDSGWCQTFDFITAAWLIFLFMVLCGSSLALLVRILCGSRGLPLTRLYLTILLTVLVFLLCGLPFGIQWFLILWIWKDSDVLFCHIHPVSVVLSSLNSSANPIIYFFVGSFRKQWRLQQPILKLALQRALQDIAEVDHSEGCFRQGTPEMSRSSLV

[2] = biological target: T1, Mas-related G-protein coupled receptor member X2 (Homo sapiens); assay: Competitive binding affinity to MrgX2 (unknown origin) assessed as retention time of compound at 4 x 10^-8mol/L by zonal elution method (reference value: 58.73 min); conditions: dose 4.0 10^-8mol/L
[3] = biological target: T1, Mas-related G-protein coupled receptor member X2 (Homo sapiens); assay: Competitive binding affinity to MrgX2 (unknown origin) assessed as retention time of compound at 8 x 10^-8mol/L by zonal elution method (reference value: 58.73 min); conditions: dose 8.0 10^-8mol/L
[4] = biological target: T1, Mas-related G-protein coupled receptor member X2 (Homo sapiens); assay: Competitive binding affinity to MrgX2 (unknown origin) assessed as retention time of compound at 2 x 10^-8mol/L by zonal elution method (reference value: 58.73 min); conditions: dose 2.0 10^-8mol/L
Mus musculus [5] = assay: Anti-pseudoallergic activity in C48/80-induced male C57BL/6 mouse model assessed as reduction in serum histamine release at 1 to 10 mg/kg, preadministered with compound via gavage for 2 hrs followed by C48/80 administration and measured after 1 hrs by UHPLC-ESI-MS/MS analysis; format: functional, organism-based; conditions: dose 1-10 mg/kg, time 3.0 hrs
LAD2 [6] = assay: Anti-pseudoallergic activity in human LAD2 cells assessed as inhibition of C48/80-induced beta-aminohexosidase release preincubated for 30 mins followed by SP addition and measured after 30 mins by absorbance based microplate reader analysis; format: functional, cell-based
LAD2 [7] = assay: Anti-pseudoallergic activity in human LAD2 cells assessed as inhibition of SP-induced beta-aminohexosidase release at 50 uM preincubated for 30 mins followed by SP addition and measured after 30 mins by absorbance based microplate reader analysis relative to control; format: functional; conditions: LAD2, 1 h, time 60 min
Mus musculus [8] = assay: Anti-pseudoallergic activity in C48/80-induced male C57BL/6 mouse model assessed as reduction in mast cell degranulation at 1 mg/mL administered via gavage for 2 hrs by Toluidine blue staining based analysis; format: functional, organism-based
LAD2 [9] = assay: Anti-pseudoallergic activity in human LAD2 cells assessed as inhibition of SP-induced TNF-alpha release incubated for 6 hrs by ELISA analysis; format: functional, cell-based; conditions: dose 1-10 µM
Mus musculus [10] = assay: Anti-pseudoallergic activity in C48/80-induced male C57BL/6 mouse model assessed as reduction in paw thickness at 0.5 to 1.0 mg/mL administered via gavage for 2 hrs by vernier caliper based analysis; format: functional, organism-based; conditions: dose 0.5-1 mg/ml
[11] = Cytotoxicity against human LAD2 cells assessed as cell viability incubated for 24 hrs by CCK8 assay relative to control; format: toxicity, cell-based; conditions: read-out: Activity
LAD2 [12] = assay: Anti-pseudoallergic activity in human LAD2 cells assessed as inhibition of SP-induced histamine release preincubated for 30 mins followed by SP addition and measured after 30 mins by UHPLC-ESI-MS/MS analysis; format: functional, cell-based; conditions: dose 1-10 µM, time 60.0 min
Mus musculus [13] = assay: Anti-pseudoallergic activity in C48/80-induced male C57BL/6 mouse model assessed as reduction in evans blue extravasation at 1.0 mg/mL administered via gavage for 2 hrs by absorbance based assay; format: functional, organism-based
LAD2 [14] = assay: Anti-pseudoallergic activity in human LAD2 cells assessed as inhibition of SP-induced beta-aminohexosidase release preincubated for 30 mins followed by SP addition and measured after 30 mins by absorbance based microplate reader analysis; format: functional, cell-based

Structure (SMILES)	Retention time [1]	Retention time [2]	Retention time [3]	Retention time [4]	Activity (Mus musculus [5])	IC50 (LAD2 [6])	Activity (LAD2 [6]; time 60.0 min)	inhibition at 50 µM (LAD2 [7])	Activity (Mus musculus [8])	Activity (LAD2 [9])	Activity (Mus musculus [10])	viability at 24 h [11]	Activity (LAD2 [12])	Activity (Mus musculus [13])	IC50 (LAD2 [14])	Activity (LAD2 [14]; time 60.0 min)
CN(C)[C@@H]1CCN(c2cc(-c3ccccc3)nc3ccnn23)C1	23.7 min	46.3 min	29.2 min	56.1 min												
O=C(CSc1nnc(-c2ccccc2)c(-c2ccccc2)n1)Nc1ccc(Cl)cc1Cl					Active	6.18 µM	Dose-dependent-effect	75%	Active	Dose-dependent-effect	Active	> 85%	Dose-dependent-effect	Active	4.9 µM	Dose-dependent-effect

— ChEMBL document CHEMBL6115018, “MrgX2-Targeting Ligand Screen for Antipseudoallergic Agents by Immobilized His-Tag-Fused Protein Technology” (J Med Chem, 2025)
